# Test results: US4443436A, “C-20-Modified macrolide derivatives of the macrolide antibiotics tylosin, desmycosin, macrocin, and lactenocin” (Eli Lilly and Company, priority 1982, dated 1984)
# Where two headings read alike, the source gives them in different places.
# What was measured:
# [1] = test system: Staphylococcus aureus X400; test: MIC, standard agar-dilution assay, Staphylococcus aureus X400; format: cell-based
# Mycoplasma synoviae = test: MIC, broth-dilution microtiter test, Mycoplasma synoviae; format: cell-based
# From the text: (§1) The MIC's in Table X were obtained using conventional broth-dilution microtiter tests.
# [2] = test system: Staphylococcus aureus V41; test: MIC, standard agar-dilution assay, Staphylococcus aureus V41; format: cell-based
# Staphylococcus aureus = test: MIC, broth-dilution microtiter test, Staphylococcus aureus; format: cell-based
# From the text: as §1
# [3] = test system: Staphylococcus epidermidis EPI2; test: MIC, standard agar-dilution assay, Staphylococcus epidermidis EPI2; format: cell-based
# [4] = test system: Pasteurella hemolytica 22C; test: MIC, broth-dilution microtiter test, Pasteurella hemolytica 22C; format: cell-based; conditions: Pasteurella hemolytica 22C, broth-dilution microtiter
# From the text: as §1
# Mycoplasma gallisepticum = test: MIC, broth-dilution microtiter test, Mycoplasma gallisepticum; format: cell-based
# From the text: as §1
# [5] = test system: Streptococcus pyogenes C203; test: MIC, standard agar-dilution assay, Streptococcus pyogenes C203; format: cell-based
# Streptococcus bovis 80 = test: MIC, broth-dilution microtiter test, Streptococcus bovis 80; format: cell-based
# From the text: as §1
# Mycoplasma hyorhinis = test: MIC, broth-dilution microtiter test, Mycoplasma hyorhinis; format: cell-based
# From the text: as §1
# Pasteurella multocida [6] = test: Subcutaneous treatment of Pasteurella multocida-infected chicks; format: in vivo, one-day-old chicks; conditions: 30 mg/kg × 2, 1 and 4 hours post-challenge
# Protocol: (§2) Many of the C-20 modified derivatives of this invention have also shown in vivo antibacterial activity against infections induced by gram-negative bacteria. Tables XII and XIII summarize the results of tests in which illustrative compounds were evaluated against Pasteurella infection in one-day-old chicks. The compounds were administered parenterally or orally after challenge of the chicks with Pasteurella multocida (0.1 ml of a 10^-4 dilution of a twenty-hour tryptose broth culture of an avian P. multocida given subcutaneously). In these tests, unless indicated otherwise, all non-medicated infected chicks died within 24 hours of Pasteurella challenge. In the tests summarized in Table XII the compounds were administered by subcutaneous injection at a dosage of 30 mg/kg, 1 and 4 hours post-challenge of the chicks with P. multocida. In the test summarized in Table XIII the compounds were administered by gavage at 1 and 5 hours post-challenge of the chicks with P. multocida.
# [7] = test system: Streptococcus pneumoniae Park I; test: microbe, parasite or virus in culture; format: cell-based
# [8] = test system: Staphylococcus epidermidis EPI1; test: MIC, standard agar-dilution assay, Staphylococcus epidermidis EPI1; format: cell-based
# Mycoplasma hyopneumoniae = test: MIC, broth-dilution microtiter test, Mycoplasma hyopneumoniae; format: cell-based
# From the text: as §1
# [9] = test system: Pasteurella multocida 17E; test: MIC, broth-dilution microtiter test, Pasteurella multocida 17E; format: cell-based
# From the text: as §1
# [10] = test system: Staphylococcus aureus X1.1; test: MIC, standard agar-dilution assay, Staphylococcus aureus X1.1; format: cell-based
# [11] = test system: Pasteurella multocida 60A; test: MIC, broth-dilution microtiter test, Pasteurella multocida 60A; format: cell-based; conditions: Pasteurella multocida 60A, avian isolate, broth-dilution microtiter
# From the text: as §1
# Streptococcus Group 9960 = test: MIC, standard agar-dilution assay, Streptococcus Group 9960; format: cell-based; conditions: Streptococcus Group 9960, agar dilution
# [12] = test system: Streptococcus Group D X66; test: MIC, standard agar-dilution assay, Streptococcus Group D X66; format: cell-based
# [13] = test system: Staphylococcus aureus S13E; test: MIC, standard agar-dilution assay, Staphylococcus aureus S13E; format: cell-based
# [14] = test system: Streptococcus pyogenes C203; test: In vivo protection of mice experimentally infected with S. pyogenes C203; conditions: mice, doses given 1 and 4 hours post-infection; for ED50: Streptococcus pyogenes
# Protocol: The C-20 modified derivatives of this invention have shown in vivo antimicrobial activity against experimentally-induced infections in laboratory animals. When two doses of test compound were administered to mice experimentally infected with S. pyogenes C203, the activity observed was measured as an ED50 value [effective dose in mg/kg to protect 50% of the test animals: see Warren Wick, et al., J. Bacteriol. 81, 233-235 (1961)].
# [15] = test system: Haemophilus influenzae Holt; test: MIC, standard agar-dilution assay, Haemophilus influenzae Holt; format: cell-based
# Pasteurella multocida [16] = test: Oral (gavage) treatment of Pasteurella multocida-infected chicks; format: in vivo, one-day-old chicks
# Protocol: as §2
# [17] = test system: Haemophilus influenzae R252; test: MIC, standard agar-dilution assay, Haemophilus influenzae R252; format: cell-based
# [18] = Staphylococcus epidermidis, EPI1
# [19] = C203, sc, subcutaneous, read-out: ED50, Subcutaneous
# [20] = C203, oral, read-out: ED50, Oral
smiles,measurement,setting,value
"CCC1OC(=O)CC(O)C(C)C(OC2OC(C)C(O)C(N(C)C)C2O)C(CCOC)CC(C)C(=O)C=CC(C)=CC1COC1OC(C)C(O)C(OC)C1OC (centres unmarked) [Compound 30, 20-DH-20-O-Methyldesmycosin]",MIC,"[1]; Staphylococcus aureus X400, methicillin-resistant strain, agar dilution, read-out: MIC",1 µg/mL
same,MIC,Mycoplasma synoviae; Mycoplasmopsis synoviae,0.39 µg/mL
same,MIC,"[2]; Staphylococcus aureus, V41",0.5 µg/mL
same,MIC,Staphylococcus aureus,0.78 µg/mL
same,MIC,"[3]; Staphylococcus epidermidis, EPI2",0.5 µg/mL
same,MIC,[4]; read-out: MIC,25 µg/mL
same,MIC,Mycoplasma gallisepticum; Mycoplasmoides gallisepticum,0.39 µg/mL
same,MIC,"[5]; Streptococcus pyogenes, C203",0.5 µg/mL
same,MIC,"Streptococcus bovis 80; Streptococcus equinus, 80",12.5 µg/mL
same,MIC,Mycoplasma hyorhinis; Mycoplasma,50 µg/mL
same,Number of Deaths/Number Treated,Pasteurella multocida [6],10/10
same,MIC,"[7]; Streptococcus pneumoniae Park I, agar dilution, read-out: MIC",4 µg/mL
same,MIC,[8]; [18],0.5 µg/mL
same,MIC,Mycoplasma hyopneumoniae; Mesomycoplasma hyopneumoniae,12.5 µg/mL
same,MIC,"[9]; Pasteurella multocida 17E, bovine isolate, broth-dilution microtiter, read-out: MIC",25 µg/mL
same,MIC,"[10]; Staphylococcus aureus, X1.1",0.5 µg/mL
same,MIC,[11]; read-out: MIC,25 µg/mL
same,MIC,"Streptococcus Group 9960; GROUP9960, read-out: MIC",16 µg/mL
same,MIC,"[12]; Streptococcus Group D X66, agar dilution, read-out: MIC",16 µg/mL
same,MIC,"[13]; Staphylococcus aureus, S13E",0.5 µg/mL
same,ED50,[14]; [19],> 6.3 mg/kg
same,ED50,[14]; [20],25 mg/kg
"CCC1OC(=O)CC(O)C(C)C(OC2OC(C)C(O)C(N(C)C)C2O)C(CCOc2cc(Cl)cc(Cl)c2)CC(C)C(=O)C=CC(C)=CC1COC1OC(C)C(O)C(OC)C1OC (centres unmarked) [Compound 40, 20-DH-20-O-(3,5-Dichlorophenyl)desmycosin]",MIC,"[1]; Staphylococcus aureus X400, methicillin-resistant strain, agar dilution",0.25 µg/mL
same,MIC,"Mycoplasma synoviae; Mycoplasma synoviae, broth-dilution microtiter",0.19 µg/mL
same,MIC,"[2]; Staphylococcus aureus V41, penicillin-resistant strain, agar dilution",0.25 µg/mL
same,MIC,Staphylococcus aureus; broth-dilution microtiter,0.39 µg/mL
same,MIC,"[3]; Staphylococcus epidermidis EPI2, agar dilution",0.12 µg/mL
same,MIC,[4],12.5 µg/mL
same,MIC,"Mycoplasma gallisepticum; Mycoplasma gallisepticum, broth-dilution microtiter",< 0.05 µg/mL
same,MIC,"[5]; Streptococcus pyogenes C203, agar dilution",0.12 µg/mL
same,MIC,"[15]; Haemophilus influenzae Holt, ampicillin-sensitive strain, agar dilution",32 µg/mL
same,MIC,"Streptococcus bovis 80; Streptococcus bovis 80, broth-dilution microtiter",3.12 µg/mL
same,MIC,"Mycoplasma hyorhinis; Mycoplasma hyorhinis, broth-dilution microtiter",12.5 µg/mL
same,MIC,"[7]; Streptococcus pneumoniae Park I, agar dilution",1 µg/mL
same,MIC,"[8]; Staphylococcus epidermidis EPI1, agar dilution",0.25 µg/mL
same,MIC,"Mycoplasma hyopneumoniae; Mycoplasma hyopneumoniae, broth-dilution microtiter",12.5 µg/mL
same,MIC,"[9]; Pasteurella multocida 17E, bovine isolate, broth-dilution microtiter",12.5 µg/mL
same,Number of Deaths/Number tested,Pasteurella multocida [16]; 1.5 g/gal equivalent,10/10
same,MIC,"[10]; Staphylococcus aureus X1.1, agar dilution",0.25 µg/mL
same,MIC,[11],12.5 µg/mL
same,MIC,"[17]; Haemophilus influenzae R252, ampicillin-resistant strain, agar dilution",16 µg/mL
same,MIC,Streptococcus Group 9960,8 µg/mL
same,MIC,"[12]; Streptococcus Group D X66, agar dilution",4 µg/mL
same,MIC,"[13]; Staphylococcus aureus S13E, agar dilution",0.25 µg/mL
same,"ED50, Oral",[14]; oral,31 mg/kg × 2
same,"ED50, Subcutaneous",[14]; subcutaneous,> 10 mg/kg × 2
"CCC1OC(=O)CC(O)C(C)C(OC2OC(C)C(O)C(N(C)C)C2O)C(CCOc2ccc([N+](=O)[O-])cc2)CC(C)C(=O)C=CC(C)=CC1COC1OC(C)C(O)C(OC)C1OC (centres unmarked) [Compound 34, 20-DH-20-O-(p-Nitrophenyl)desmycosin]",MIC,"[1]; Staphylococcus aureus, X400",1 µg/mL
same,MIC,Mycoplasma synoviae; Mycoplasmopsis synoviae,0.78 µg/mL
same,MIC,"[2]; Staphylococcus aureus, V41",0.5 µg/mL
same,MIC,"Staphylococcus aureus; broth-dilution microtiter, read-out: MIC",0.39 µg/mL
same,MIC,"[3]; Staphylococcus epidermidis EPI2, agar dilution, read-out: MIC",0.12 µg/mL
same,MIC,[4]; read-out: MIC,25 µg/mL
same,MIC,"Mycoplasma gallisepticum; Mycoplasmoides gallisepticum, Mycoplasma gallisepticum, broth-dilution microtiter, read-out: MIC",0.39 µg/mL
same,MIC,"[5]; Streptococcus pyogenes, C203",1 µg/mL
same,MIC,[15]; Haemophilus influenzae,16 µg/mL
same,MIC,"Streptococcus bovis 80; Streptococcus equinus, 80",1.56 µg/mL
same,MIC,Mycoplasma hyorhinis; Mycoplasma,50 µg/mL
same,MIC,[7]; Streptococcus pneumoniae,1 µg/mL
same,MIC,[8]; [18],0.5 µg/mL
same,MIC,Mycoplasma hyopneumoniae; Mesomycoplasma hyopneumoniae,12.5 µg/mL
same,MIC,"[9]; Pasteurella multocida, 17E",12.5 µg/mL
same,Number of Deaths/Number tested,Pasteurella multocida [16]; 0.5 g/gal equivalent,7/10
same,Number of Deaths/Number tested,Pasteurella multocida [16]; 1.0 g/gal equivalent,9/10
same,MIC,"[10]; Staphylococcus aureus, X1.1",0.5 µg/mL
same,MIC,[11]; read-out: MIC,25 µg/mL
same,MIC,"[17]; Haemophilus influenzae, R252",16 µg/mL
same,MIC,"Streptococcus Group 9960; GROUP9960, read-out: MIC",8 µg/mL
same,MIC,[12],4 µg/mL
same,MIC,"[13]; Staphylococcus aureus, S13E",0.5 µg/mL
same,ED50,[14]; [19],1.1 mg/kg
same,ED50,[14]; [20],5 mg/kg
